This is an account of results in US12655141B2, “Inhibitors of notch signaling pathway and use thereof in treatment of cancers” (Cellestia Biotech AG, priority 2019, dated 2026).

A word on the IC50: it is the concentration at which inhibition is half-maximal. A higher IC50 goes with a need for much substance.

Test [1] concerns NOTCH positive/driven human T cell acute lymphoblastic leukemia cell line RPMI 8402. As to the kind of experiment: PrestoBlue anti-proliferative assay. The format is cell-based. The following applies: for IC50: Homo sapiens, RPMI 8402, RPMI8402, 72 hours, concentration range 0.03-100 μM; for fold change compared to 6-(4-tert-butylphenoxy)pyridin-3-amine (anti-proliferative IC50): RPMI8402, 72 hours. How it is done: (§1) Alamarblue® and PrestoBlue proliferation assays were performed to determine the growth kinetics of Notch inhibitor treated cells. Alamar Blue® and PrestoBlue consists of a cell permeable substrate resazurin. In metabolically active and proliferating cells, resazurin is converted to resorufin due to an intrinsic reducing power of live cells and produces a red fluorescence. Therefore production of resorufin serves as an indicator of the viability of the cell population.
Proliferation assays were performed by seeding 5000 cells/well in a 96 well plate. […] Each concentration was tested in 4 replicates. To determine the growth kinetics, 10 μl of Alamar Blue® or PrestoBlue (Invitrogen) was added to each well and incubated for 4 hours. Readout was taken using Tecan F500 (Tecan) multiplate reader or Varioskan LUX (ThermoFisher) multiplate reader.
(§2) In order to determine anti-cancer potency of compounds compared to 6-(4-tert-butylphenoxy)pyridin-3-amine (described in WO2013/093885), NOTCH positive/driven human T cell acute lymphoblastic leukemia cell line RPMI 8402 was treated with selected compounds.

Test [2] deals with N1-ICD (cleaved and active NOTCH1 Intracellular Domain). The test is described as follows: Jess western blot of RPMI8402 protein lysates: N1-ICD. The following applies: RPMI8402, 1 μM, 24 hours, 37° C. In kind it is cell-based, human. How it is done: (§3) One million human NOTCH positive T-ALL cell line RPMI8402 were treated with NOTCH targeting compounds at 1 μM concentration for 24 hours. Following treatment cells were harvested and washed with 1×PBS. Total RNA and total protein lysates were extracted as described below.
(§4) Cells were lysed in RIPA buffer (50 mM Tris·Cl, pH 7.5, 150 mM NaCl, 1% nonidet P-40, 0.5% sodium deoxycholate and 0.1% SDS) for 30 minutes at 4° C. Lysed cells were centrifuged to remove the debris at 14000 rpm at 4° C. Supernatant was transferred to a new eppendorf tube. The protein concentration was determined by Bradford assay using spectrophotometer (Ultrospec 3000 pro).
(§5) Later on western blotting was carried out using Jess (ProteinSimple, biotechne). Samples containing 0.8 μg protein was denatured in loading buffer containing DTT by heating at 95° C. for 5 minutes. Samples were run on 12-230 kDa gel matrix, with incubation time for primary and secondary antibodies of 1 hour and 30 minutes, respectively. Data were analysed using Compass for SW (ProteinSimple, biotechne) software.
(§6) Total protein lysates were analysed by Jess western blot analysis using N1-ICD (cleaved and active NOTCH1 Intracellular Domain), cMYC and GAPDH specific antibodies.
For orientation: In western blotting, separated proteins are transferred to a membrane and probed.

Test [3] relates to NOTCH positive/driven human T cell acute lymphoblastic leukemia cell line RPMI 8402. The test is described as follows: Alamar blue anti-proliferative assay. In kind it is cell-based. The following applies: for IC50: Homo sapiens, RPMI 8402, RPMI8402, 72 hours, concentration range 0.01-10 μM. How it is done: as §1
Proliferation assays were performed by seeding 5000 cells/well in a 96 well plate. Cells were treated with DMSO or compounds for 72 hours using concentration ranges of 0.01-10 μM. Each concentration was tested in 4 replicates. To determine the growth kinetics, 10 μl of Alamar Blue® or PrestoBlue (Invitrogen) was added to each well and incubated for 4 hours. Readout was taken using Tecan F500 (Tecan) multiplate reader or Varioskan LUX (ThermoFisher) multiplate reader.
as §2
(The colour change of resazurin is a common sign of viable cells or microbes.)

In another test the test system is cMYC. As to the kind of experiment: Jess western blot of RPMI8402 protein lysates: cMYC. In kind it is cell-based, human. As to conditions: RPMI8402, 1 μM, 24 hours, 37° C. How it is done: as §3, §4, §5, §6

In the case of `CC(C)(C)c1ccc(Oc2ccc(N)cn2)cc1` [6-(4-tert-butylphenoxy)pyridin-3-amine, reference compound], the IC50 in test [1] and in test [3] was 740 nM each time. Further, the “fold change compared to 6-(4-tert-butylphenoxy)pyridin-3-amine (anti-proliferative IC50)” value (“fold change” for short) in test [1] is on record as “(1X) x”; in test [3] (RPMI8402, 72 hours), “(1X) x”. In addition, the “Percentage improvement of compounds over 6-(4-tert-Butylphenoxy)pyridin-3-amine to downregulate NOTCH target genes (protein expression): N1-ICD” value (from here on “Percentage improvement of compounds … N1-ICD”) in test [2] turned out to be 100%. Besides, the “Percentage improvement of compounds over 6-(4-tert-Butylphenoxy)pyridin-3-amine to downregulate NOTCH target genes (protein expression): cMYC” value (shortened to “Percentage improvement of compounds … cMYC”) with cMYC amounted to 100%.

With `CNc1ccc(Oc2ccc(-c3ccccc3)cc2)c(F)c1` [Example 6, 4-([1,1′-Biphenyl]-4-yloxy)-3-fluoro-N-methylaniline], the half-maximal inhibitory concentration (IC50) in test [3] is 700 nM.

For `Nc1ccc(Oc2ccc(-c3ccccc3)cc2)cc1` [Example 7, 4-([1,1′-Biphenyl]-4-yloxy)aniline], in test [3], the half-maximal inhibitory concentration (IC50) came to 170 nM. This IC50 is about 4.1-fold lower than that of the compound before.

For `Nc1ccc(OCCc2cc(Oc3ccc(N)cn3)ccc2-c2ccccc2)cc1` [Example 22, 6-((2-(2-(4-Aminophenoxy)ethyl)-[1,1′-biphenyl]-4-yl)oxy)pyridin-3-amine], half-maximal inhibition in test [3] (IC50) required 920 nM.

As to `CNc1ccc(Oc2ccc(-c3ccc(F)cc3)cc2)nc1` [Example 27, 6-((4′-Fluoro-[1,1′-biphenyl]-4-yl)oxy)-N-methylpyridin-3-amine], in test [1], half-maximal inhibition (IC50) required 200 nM and the “fold change” value is recorded as “(3.7x)”. The “Percentage improvement of compounds … N1-ICD” value in test [2] is recorded as 197%. Besides, in the test with cMYC, the “Percentage improvement of compounds … cMYC” value is given as 183%.

For the compound `Cc1nc(Oc2ccc(-c3ccc(F)cc3)cc2)ccc1N` [Example 28, 6-((4′-Fluoro-[1,1′-biphenyl]-4-yl)oxy)-2-methylpyridin-3-amine], in test [1], the IC50 is < 30 nM and the “fold change” value is “(>24x)”. Also, in test [2], the “Percentage improvement of compounds … N1-ICD” value is on record as 173%. For the same compound, the “Percentage improvement of compounds … cMYC” value in the test with cMYC is recorded as 170%.

Turning to `Cc1cc(Oc2ccc(-c3ccc(F)cc3)cc2)ncc1N` [Example 29, 6-((4′-Fluoro-[1,1′-biphenyl]-4-yl)oxy)-4-methylpyridin-3-amine], in test [2], the “Percentage improvement of compounds … N1-ICD” value came to 192%. Also, in the test on cMYC, the “Percentage improvement of compounds … cMYC” value is recorded as 183%.

As for `Cc1nc(Oc2ccc(-c3ccccc3)nc2)ccc1N` [Example 30, 2-Methyl-6-((6-phenylpyridin-3-yl)oxy)pyridin-3-amine], in test [1], the IC50 worked out at 450 nM and the “fold change” value is listed as “(1.6x)”. For the same compound, in test [2], the “Percentage improvement of compounds … N1-ICD” value was 159%. For the same compound, the “Percentage improvement of compounds … cMYC” value in the test with cMYC is given as 159%.

For `Cc1cc(Oc2ccc(-c3ccccc3)nc2)ncc1N` [Example 31, 4-Methyl-6-((6-phenylpyridin-3-yl)oxy)pyridin-3-amine], in test [2], the “Percentage improvement of compounds … N1-ICD” value turned out to be 110%. The “Percentage improvement of compounds … cMYC” value in the test on cMYC is listed as 108%.

`Cc1nc(Oc2ccc(-c3cncs3)cc2)ccc1N` [Example 32, 2-Methyl-6-(4-(thiazol-5-yl)phenoxy)pyridin-3-amine]: in test [1], the half-maximal inhibitory concentration (IC50) is 500 nM and the “fold change” value is “(1.5x)”. Further, the “Percentage improvement of compounds … N1-ICD” value in test [2] is 136%. Further, in the test on cMYC, the “Percentage improvement of compounds … cMYC” value worked out at 133%.

Take `Cc1cc(Oc2ccc(-c3cncs3)cc2)ncc1N` [Example 33, 4-Methyl-6-(4-(thiazol-5-yl)phenoxy)pyridin-3-amine]: in test [1], the IC50 was < 30 nM and the “fold change” value is recorded as “(>24x)”. In addition, the “Percentage improvement of compounds … N1-ICD” value in test [2] amounted to 132%. Besides, the “Percentage improvement of compounds … cMYC” value in the test with cMYC was determined as 130%.

`CNc1ccc(Oc2ccc(-c3cncs3)cc2)nc1` [Example 34, N-Methyl-6-(4-(thiazol-5-yl)phenoxy)pyridin-3-amine]: in test [1], the midpoint of inhibition, the IC50, lay at 150 nM and the “fold change” value is reported as “(4.9x)”. Also, in test [2], the “Percentage improvement of compounds … N1-ICD” value worked out at 114%. The “Percentage improvement of compounds … cMYC” value with cMYC was 115%.

On to `Cc1nc(Oc2ccc(-c3nccs3)cc2)ccc1N` [Example 35, 2-Methyl-6-(4-(thiazol-2-yl)phenoxy)pyridin-3-amine], for which, in test [1], the IC50 is < 30 nM and the “fold change” value was “(>24x)”. Moreover, the “Percentage improvement of compounds … N1-ICD” value in test [2] is listed as 132%. In the test with cMYC, the “Percentage improvement of compounds … cMYC” value came out at 130%.

In the case of `Cc1cc(Oc2ccc(-c3nccs3)cc2)ncc1N` [Example 36, 4-Methyl-6-(4-(thiazol-2-yl)phenoxy)pyridin-3-amine], in test [1], the half-inhibitory concentration (IC50) came to 50 nM and the “fold change” value was “(14.8x)”.

For `Cc1ccccc1-c1ccc(Oc2ccc(N)c(C)n2)cc1C` [Example 37, 6-((2,2′-Dimethyl-[1,1′-biphenyl]-4-yl)oxy)-2-methylpyridin-3-amine], the “Percentage improvement of compounds … N1-ICD” value in test [2] was determined as 151%. Besides, the “Percentage improvement of compounds … cMYC” value in the test on cMYC came to 138%.

Turning to `Nc1ccc(Cc2ccc(-c3ccc(F)cc3)cc2)cc1` [Example 59, 4-((4′-Fluoro-[1,1′-biphenyl]-4-yl)methyl)aniline], the “Percentage improvement of compounds … N1-ICD” value in test [2] came out at 149%. Moreover, the “Percentage improvement of compounds … cMYC” value in the test with cMYC was 154%.
